Laboratory results taken from the Kinase Knowledgebase extract (Sharma et al. 2016).

biological target: CDK2 (UniProt P24941); experiment: Enzyme Assay

Row | Structure (SMILES) | IC50 [µM]
1 | O=C(Cc1cccs1)Nc1n[nH]c2c1CCC2 | 4
2 | O=C(Cc1cccc(-c2ccccc2)c1)Nc1n[nH]c2c1CCC2 | 8
3 | COc1ccc(OC)c(CC(=O)Nc2n[nH]c3c2CCC3)c1 | 5.2
4 | O=C(Cc1ccc(-c2ccccc2F)cc1)Nc1n[nH]c2c1CCC2 | 7
5 | O=C(Cc1ccc(-c2ccccc2)cc1)Nc1n[nH]c2c1CCC2 | 1
6 | CC(=O)c1cccc(-c2ccc(CC(=O)Nc3n[nH]c4c3CCC4)cc2)c1 | 4.3
7 | COc1ccccc1-c1ccc(CC(=O)Nc2n[nH]c3c2CCC3)cc1 | < 10
8 | O=C(Cc1ccccc1)Nc1n[nH]c2c1CCC2 | 1.5
9 | COc1ccc(-c2ccc(CC(=O)Nc3n[nH]c4c3CCC4)cc2)cc1 | < 10
10 | O=C(Cc1ccc(I)cc1)Nc1n[nH]c2c1CCC2 | 0.8
11 | CC(=O)c1ccc(-c2ccc(CC(=O)Nc3n[nH]c4c3CCC4)cc2)cc1 | 6.5
12 | COc1ccc(CC(=O)Nc2n[nH]c3c2CCC3)cc1 | 0.7
13 | O=C(Cc1cccc(Br)c1)Nc1n[nH]c2c1CCC2 | 1.5
14 | O=C(Cc1ccc(-c2ccc(F)cc2)cc1)Nc1n[nH]c2c1CCC2 | < 10
15 | O=C(Cc1ccc(Br)cc1)Nc1n[nH]c2c1CCC2 | 1.1
16 | CSc1ccc(CC(=O)Nc2n[nH]c3c2CCC3)cc1 | 1.5
17 | CC(C)(C)c1ccc(CC(=O)Nc2n[nH]c3c2CCC3)cc1 | 1
18 | O=C(Nc1n[nH]c2c1CCC2)c1cccc(F)c1 | 5
19 | O=C(CCc1ccccc1)Nc1n[nH]c2c1CCC2 | 3
20 | O=C(Nc1n[nH]c2c1CCC2)c1cccs1 | 4
21 | COc1ccc(C(=O)Nc2n[nH]c3c2CCC3)cc1 | 6
22 | COc1cccc(-c2ccc(CC(=O)Nc3n[nH]c4c3CCC4)cc2)c1 | < 10
23 | O=C(Cc1ccc(F)cc1)Nc1n[nH]c2c1CCC2 | 3
24 | COc1cccc(CC(=O)Nc2n[nH]c3c2CCC3)c1 | 7.6
25 | O=C(Cc1ccc(-c2cccc(F)c2)cc1)Nc1n[nH]c2c1CCC2 | 7
26 | O=C(Nc1n[nH]c2c1CCC2)c1ccccc1 | 7
27 | O=C(Nc1n[nH]c2c1CCC2)C1CC1 | 4
28 | O=C(Nc1n[nH]c2c1CCC2)c1ccc2c(c1)OCO2 | 4
